Measured values published in patent publication US20040038888A1 (priority 2002, published 2004).
Ends that are not written are not given here.

Assays:
[1] = test system: mouse adult neural stem cells; test: Intracellular ATP assay, adult mouse NSC, non-adherent culture; assay type: cell-based; conditions: for effect of inhibitor on the PACAP increase of intracellular ATP: co-incubated with PACAP 100 nM, 4 days, 10 uM H89, 1 uM U73122, 1 uM Gö6976
Experimental: The anterior lateral wall of the lateral ventricle of 5-6 week old mice was enzymatically dissociated in 0.8 mg/ml hyaluronidase and 0.5 mg/ml trypsin in DMEM containing 4.5 mg/ml glucose and 80 units/ml DNase at 37° C. for 20 min. The cells were gently triturated and mixed with three volumes of Neurosphere medium (DMEM/F12, B27 supplement, 12.5 mM HEPES pH7.4) containing 20 ng/ml EGF (unless otherwise stated), 100 units/ml penicillin and 100μg/ml streptomycin. After passing through a 70 μm strainer, the cells were pelleted at 160×g for 5 min. The supernatant was subsequently removed and the cells resuspended in Neurosphere medium supplemented as above, plated out in culture dishes and incubated at 37° C. Neurospheres were ready to be split approximately 7 days after plating.
To split neurosphere cultures, neurospheres were collected by centrifugation at 160×g for 5 min. The neurospheres were resuspended in 0.5 ml Trypsin/EDTA in HBSS (1×), incubated at 37° C. for 2 min and triturated gently to aid dissociation. Following a further 3 min incubation at 37° C. and trituration, 3 volumes of ice cold NSPH-media-EGF were added to stop further trypsin activity. The cells were pelleted at 220×g for 4 min, resuspended in fresh Neurosphere medium supplemented with 20 ng/ml EGF and 1 nM bFGF plated out and incubated at 37° C.
Mouse neurospheres, cultured as described above, from passage 2, were seeded in DMEM/F12 supplemented with B27 into a 96-well plate as single cells (10000 cells/well) to the substances to be measured were added at the concentrations indicated. After 3 days incubation, intracellular ATP was measured using the ATP-SL kit from BioThema, Sweden, according to the manufacturer's instructions. PACAP and VIP were purchased from Bachem. Maxadilan was a kind gift from Richard G Titus, Dept Microbiology, Immunology and Pathology, College of Veterinary Medicine and Biological Sciences, Colorado State University.
In experiments where signalling pathways were examined, cells were seeded as single cells as mentioned above. PACAP, 100 nM, was co incubated with 10 uM PKA inhibitor H89 (Alexis-Biochemicals) or 1 uM PLC inhibitor U73122 (Alexis-Biochemicals) or 1 uM of the PKC inhibitor Gö6976 (Sigma-Aldrich). Cells were incubated for 4 days before measurements of ATP.
In the experiment analysing the combinatory effect of PACAP and EGF, PACAP at 100 nM was co-incubated with 3 nM EGF for 3 days.

AP-1 = AP-1 transcription factor reporter assay; assay type: cell-based, mouse; conditions: PD89059 10 μM with PACAP 100 nM
Experimental: Vectors: Vector DNA containing reporter elements for AP-1 and empty cloning vector (pTAL), with a luciferace reporter were purchased from Promega. The vectors were propagated in E. coli strain JM-109 (Promega) and purified with Qiagens maxi-prep Kit (Qiagen). The concentration was diluted to approximately 1 mg/ml per vector.
Transfection: Transient transfection was performed by seeding cells as above in suspension neurosphere cell culture and adherent neurosphere cell culture (1 to 3 day incubation) using 30,000 single cells/well. Each well was transiently transfected with […] plasmid, 0.6 μg Nupherin-neuron (Biomol) and 0,6 μl of Fugene-6 (Roche). Plasmid and Nupherin was mixed and diluted in DMEM/F12 to a total volume of 50 μl/well, and were incubated for 15 minutes prior to mixing with Fugene-6 that were diluted in DMEM/F12 to a total volume of 50 μl/well. The mix of plasmid and Nupherin and Fugene-6 were incubated for 20 min. The volume was adjusted to 100 μl prior to addition of 100 μl/well of transfection reagent.
Assay: The following day the transiently transfected cells were applied with PACAP (Bachem) to final concentration of 100 nM/well, in the presence or absence of MEK inhibitor, […] (Sigma-Aldrich). Luciferace activity was analysed with steady glow (Promega) according to the instructions of the manufacturer. Cells were analysed 20 hours after induction with PACAP.

NSC from LVW = test: Culture of NSC for cell counting; assay type: cell-based, mouse; conditions: PACAP 100 nM, VEGF 1 nM, in place of EGF, 7 days; VEGF relative to PACAP treated NSC
Experimental: Anterior lateral ventricle wall was dissected and the cells treated as stated above, however, in place of EGF, the medium was supplemented either with PACAP (100 nM), VEGF (1 nM) or a combination of both at the stated concentrations. The cell suspension was plated into wells of a 24 well plate. The medium was further supplemented with PACAP and/or VEGF every 2 days. After 7 days in culture, the NSC washed in phosphate buffered saline and dissociated with trypsin/EDTA. Cells numbers per well were counted using a Bürker chamber. VEGF was purchased from R&D Systems.

Cn1c2ccccc2c2c3c(c4c5ccccc5n(CCC#N)c4c21)CNC3=O [Gö6976, reference compound]
effect of inhibitor on the PACAP increase of intracellular ATP [1]: entirely negate the effect of PACAP

O=S(=O)(NCCNC/C=C/c1ccc(Br)cc1)c1cccc2cnccc12 [H89, reference compound]
effect of inhibitor on the PACAP increase of intracellular ATP [1]: unaltered

COc1cccc(-c2cc(=O)c3ccccc3o2)c1N [PD89059, reference compound]
effect of MEK inhibitor on the PACAP induction of AP-1 (AP-1): inhibited

COc1ccc2c(c1)CC[C@@H]1[C@@H]2CC[C@]2(C)[C@@H](NCCCCCCN3C(=O)C=CC3=O)CC[C@@H]12 [U73122, reference compound]
effect of inhibitor on the PACAP increase of intracellular ATP [1]: entirely negate the effect of PACAP

EGF: mitogen, growth factor for cell cultures from BD Biosciences
intracellular ATP levels, and hence NSC number ([1]; PACAP 100 nM, EGF 3 nM, alone or combined, 3 days): increased intracellular ATP levels

Vasoactive intestinal peptide (HSDAVFTDNYTRLRKQMAVKKYLNSILN; ends and bridges not checked; UniProt P01282 125-152, looked up) [VIP, 28-amino acid peptide]
intracellular ATP, and hence cell number ([1]; VIP at 1 μM, non-adherent conditions, 3 days, relative to control): statistically significant increase in intracellular ATP

vascular endothelial growth factor [VEGF]
cell number (NSC from LVW): significant increase in cell number
